Earlier results, collected in patent US20050152989A1, “Method for treating irritable bowel syndrome” (Braintree Laboratories, Inc., priority 2003, published 2005).

Experiments:
[1] = tested on: IBS
[2] = tested on: constipation-predominant IBS; details: Case Study 2, patient history before the formulation

Cc1[nH]cnc1CN1CCc2c(c3ccccc3n2C)C1=O [alosetron]
toxicity limiting use ([1]; diarrhea-predominant IBS): severely limited by its toxicity

[H]/N=C(/NCCCCC)N/N=C/c1c[nH]c2ccc(OC)cc12 [tegaserod]
patients with significant improvement in IBS symptoms compared with placebo ([1]; constipation-predominant IBS): about one of eight

COc1cc(N)c(Cl)cc1C(=O)NC1CCN(CCCOc2ccc(F)cc2)CC1OC (stereo not drawn) [cisapride]
outcome of earlier treatment regimens tried by the patient [2]: without success
